Measured values published in US12239643B2, “Therapeutic agent for inflammatory diseases, autoimmune diseases, fibrotic diseases, and cancer diseases” (MEIJI SEIKA PHARMA CO., LTD., priority 2018, dated 2025).
Read-outs that look alike come from different tables or passages of the source.

What was measured:
[1] = tested on: oxazolone-induced auricle edema, BALB/c mice; assay: Hapten repeated application mouse chronic dermatitis model (oral, topical); format: in vivo; settings: oral, 0.3 to 10 mg/kg twice a day for 10 days
Description: Evaluation was carried out using female BALB/c mice (7 to 8 weeks of age). First, the hair of the abdomen of the mice was treated with a hair clipper, and then 150 μL of a 3% oxazolone acetone/ethanol solution was applied to the abdomen as a hapten. One week later, 20 μL/ear of 1% oxazolone acetone/ethanol solution was applied to the outer surface of the auricle of both ears of the mice 3 times/week to induce inflammation. A 1% oxazolone-acetone/ethanol solution was applied every other day for 10 days from 1 week after the start of inflammation induction. In addition, for 10 days from 1 week after the start of inflammation induction, the test compound suspended in 0.5% w/v methylcellulose (0.5% MC) was orally administered at 0.3 to 10 mg/kg twice a day (10 μL/g), or 20 μL of a 0.3 to 3% test compound dissolved in an acetone/ethanol solution was applied once or twice a day (topical administration). A 1% oxazolone was not applied to the blank. The control was one in which 1% oxazolone was applied and only 0.5% MC was orally administered without using the test compound, or only an acetone/ethanol solution was applied.
After administration for 10 days, auricle thickness was measured using a dial thickness gauge, and the changes in auricular thickness before the treatment (immediately before the start of administration of the test compound) and after the treatment (after the administration of the test compound for 10 days) were used to calculate the edema suppression rate by the following formula. Edema Suppression Rate (%)={1−(Auricle Thickness After Treatment by Test Compound−Auricle Thickness Before Treatment by Test Compound)/(Auricle Thickness After Treatment of Control−Auricle Thickness Before Treatment of Control)}×100
The measurement results obtained by measuring the edema suppression rate at the time of oral administration of each test compound by the above method were evaluated in accordance with the following evaluated basis; A: 70% or more, B: 40% or more and less than 70%, and C: less than 40%. In addition, the measurement results obtained by measuring the edema suppression rate at the time of topical administration of each test compound were evaluated in accordance with the following evaluated basis; A: 100% or more, B: 70% or more and less than 100%, and C: less than 70%.

[2] = tested on: PDE4; assay: Evaluation of PDE4 inhibitory activity, scintillation proximity assay; format: biochemical; settings: for PDE4 inhibitory activity: summary in words of Tables 57 to 69
How it was run: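 SPA with [2,8-3H]-cAMP and diluted PDE4 enzyme preparation in 50 mM Tris-HCl pH 7.4, 8.3 mM MgCl2, 1.7 mM EGTA, 3 mg/mL BSA, 120 min at room temperature. Product captured on ZnSO4-containing YSi-SPA beads, scintillation counted; IC50 from inhibition curves vs DMSO control and no-enzyme blank.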

[3] = tested on: TGF-β; assay: TGF-β inhibitory activity using THP1 cells differentiated into macrophages; format: cell-based; settings: Homo sapiens, THP-1; THP1 cells differentiated into macrophages, lipopolysaccharide 1 μg/mL, about 7 hours; read-out: TFG-β Inhibitory Activity (Test Example 6)
Description: The TGF-β inhibitory activity was measured using THP1 cells as follows. First, THP1 cells were seeded on a 24-well culture plate at […], and culture was carried out overnight at 37° C. and 5% CO2 in RPMI-1640 medium (containing 10% fetal bovine serum, penicillin, and streptomycin) supplemented with 100 nM phorbol myristate acetate. After that, the cells were differentiated into macrophages by changing to RPMI-1640 medium without phorbol myristate acetate, followed by further culture at 37° C. under 5% CO2 overnight. Next, the THP1 culture plate was washed once with PBS(−) 1 mL/well, and then the test compound and lipopolysaccharide (final concentration 1 μg/mL) were added, followed by culture at 37° C. under 5% CO2 for about 7 hours. After culturing, the entire amount of the medium was collected, and the amount of TGF-β in the centrifuged supernatant was quantified by the sandwich ELISA method. The non-addition of lipopolysaccharide was used as a blank, and the control was obtained by adding only dimethyl sulfoxide instead of the test compound, and the inhibition rate of the test compound against the control was calculated by the following formula. Inhibition Rate (%)={1−(Value at Addition of Each Test Compound−Blank Value)/(Control Value−Blank Value)}×100
In addition, the TGF-β inhibitory activity (concentration for the inhibition rate of 50%) of the test compound was calculated from the inhibition curves based on the inhibition rate for various concentrations of the test compound.
The measurement results obtained by measuring the TFG-β inhibitory activity (50% inhibitory concentration) of the test compounds by the above method were evaluated in accordance with the following evaluated basis; A: less than 1 μM, and B: 1 μM or more.

[4] = Hepatic metabolic stability (rat liver microsome method); format: in vitro ADME; settings: rat liver microsomes 0.5 mg/mL, test substance 1 μM, NADPH 1 mM, 37° C., 30 minutes
How it was run: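 Rat liver microsomes (0.5 mg/mL final) with test compound (1 μM final) in 100 mM potassium phosphate pH 7.4, 37° C; reaction started with NADPH (1 mM final) after 5 min preincubation. Acetonitrile stop at 0 and 30 min, LC-MS quantitation; % remaining = 30 min/0 min ×100, graded A ≥75%, B 60–<75%, C 45–<60%, D <45%.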

[5] = finer grading of compounds rated A in Evaluation 1, read-out: PDE4 Inhibitory Activity (Evaluation 2)
[6] = scintillation proximity assay, class symbols of Evaluation 1, read-out: PDE4 Inhibitory Activity (concentration for the inhibition rate of 50%, IC50), Evaluation 1
[7] = scintillation proximity assay, read-out: PDE4 Inhibitory Activity (Evaluation 1; concentration for the inhibition rate of 50%)

Row | Compound | Mouse Chronic Dermatitis Model (Test Example 8), Oral: edema suppression rate [1] | IC50 [2, 5] | IC50 [2, 6] | PDE4 inhibitory activity [2] | IC50 [3] | IC50 [2, 7] | Residual ratio (% remaining for 30-minute reaction) [4]
1 | OC(c1ccc(-c2nccs2)c2oc(N3CC4CC(C3)N4)nc12)C(F)(F)F (centres unmarked) [Example 120, 1-(2-(3,6-Diazabicyclo[3.1.1]heptan-3-yl)-7-(thiazol-2-yl)benzo[d]oxazol-4-yl)-2,2,2-trifluoroethan-1-ol] | B (B: 40% or more and less than 70%) | 0.001 to 0.011 µM | < 0.1 µM | particularly excellent | < 1 µM | – | –
2 | CC(O)c1cc(-c2nccs2)c2oc(N3CC4CC(C3)N4)nc2c1OC(F)(F)F (centres unmarked) [Example 203, 1-(2-(3,6-Diazabicyclo[3.1.1]heptan-3-yl)-7-(thiazol-2-yl)-4-(trifluoromethoxy)benzo[d]oxazol-5-yl)ethan-1-ol] | B (B: 40% or more and less than 70%) | 0.001 to 0.011 µM | – | particularly excellent | < 1 µM | < 0.1 µM | –
3 | FC(F)(F)Oc1c(Cl)cc(-c2nccs2)c2oc(N3CC4CC(C3)N4)nc12 [Example 3, 2-(3,6-Diazabicyclo[3.1.1]heptan-3-yl)-5-chloro-7-(thiazol-2-yl)-4-(trifluoromethoxy)benzo[d]oxazole] | – | ≤ 0.001 µM | < 0.1 µM | particularly excellent | < 1 µM | – | B (B: 60% or more and less than 75%)
4 | COc1ccc(-c2nccs2)c2oc(N3CC4CCC(C3)N4)nc12 [Example 75, 2-(3,8-Diazabicyclo[3.2.1]octan-3-yl)-4-methoxy-7-(thiazol-2-yl)benzo[d]oxazole] | – | 0.001 to 0.011 µM | < 0.1 µM | particularly excellent | < 1 µM | – | –
5 | COC(C)(C)c1cc(-c2nccs2)c2oc(N3CC4CC(C3)N4)nc2c1OC(F)(F)F [Example 199, 2-(3,6-Diazabicyclo[3.1.1]heptan-3-yl)-5-(2-methoxypropan-2-yl)-7-(thiazol-2-yl)-4-(trifluoromethoxy)benzo[d]oxazole] | B (B: 40% or more and less than 70%) | 0.001 to 0.011 µM | – | particularly excellent | < 1 µM | < 0.1 µM | –
6 | FC(F)(F)c1ccc(-c2nccs2)c2oc(N3CC4CC(C3)N4)nc12 [Example 32, 2-(3,6-Diazabicyclo[3.1.1]heptan-3-yl)-7-(thiazol-2-yl)-4-(trifluoromethyl)benzo[d]oxazole] | – | 0.001 to 0.011 µM | < 0.1 µM | particularly excellent | < 1 µM | – | –
7 | FC(F)(F)Oc1c(Cl)cc(-c2nccs2)c2oc(N3CC4COCC(C3)N4)nc12 [Example 4, 7-(5-Chloro-7-(thiazol-2-yl)-4-(trifluoromethoxy)benzo[d]oxazol-2-yl)-3-oxa-7,9-diazabicyclo[3.3.1]nonane] | – | 0.001 to 0.011 µM | < 0.1 µM | particularly excellent | < 1 µM | – | –
